# Source: patent US20220264927A1, “ORAL DOSE COMPOSITIONS OF TRIBUTYRIN FOR THE GENERATION OF BUTYRATE IN THE GUT” (NutriScience Innovations LLC, priority 2021, published 2022)
# Like-named read-outs stand apart in the source and are kept apart here.
# What was measured:
# Caenorhabditis elegans = assay type: in vivo
# Procedure: In the second type of experiment, an animal model system was used to study changes in the gut microbiome behavior. Caenorhabditis elegans (C. elegans), a nematode commonly used as an organism model, was used in the present study. Reduction of oxidative stress was determined in the C. elegans model. Butyrate has previously been shown in rodent and porcine studies to ameliorate oxidative stress in the intestine generated via hydrogen peroxide or Diquat dibromide exposure. Thus, an oxidative stress assay is a rapid indirect method of determining whether the tributyrin doses proposed in this study can produce beneficial butyrate in vivo.
# Previous studies have shown that this concentration of Paraquat will kill adult C. elegans in liquid culture within 24 hours of exposure via the generation of superoxide anions that lead to oxidative damage of vital cellular components. The standard methods of growing the animals, treating with Paraquat, washing out the Paraquat, and observing survival at 12 hours post Paraquat treatment have been previously described. One group received only Paraquat as a positive control, while a second group received nothing as a negative control, and all others received the therapeutic treatments. […]
# In the C. elegans series of studies, the human equivalent dose (HED) of tributyrin was determined in the following manner. A typical human stomach size of 250 ml was used as a baseline. […] Tributyrin is soluble in DMSO up to a maximum concentration of 100 mg/ml, which is equivalent to 330.73 mM. C. elegans can be exposed to a 1% solution of DMSO in aqueous standard nematode growth media without compromising its viability. […]
# [1] = solubility of tributyrin in DMSO; assay type: physicochemical; conditions: organic solvent or mixture, equivalent of 100 mg/ml, read-out: maximum concentration soluble in DMSO
# Procedure: In the C. elegans series of studies, the human equivalent dose (HED) of tributyrin was determined in the following manner. A typical human stomach size of 250 ml was used as a baseline. 100 mg per serving per day of tributyrin for a 60 Kg adult is equivalent to 400 μg/ml (˜1.32 mM). Tributyrin is soluble in DMSO up to a maximum concentration of 100 mg/ml, which is equivalent to 330.73 mM. C. elegans can be exposed to a 1% solution of DMSO in aqueous standard nematode growth media without compromising its viability. Doses between 10 mg HED [40 μg/ml (˜0.13 mM)], and 100 mg HED [400 μg/ml (˜1.32 mM)] were used.
# [2] = cited from earlier work
# [3] = tested on: intestinal barrier and liver; conditions: ethanol-exposed mice, diet supplemented 5 mM, 10 days; cited from earlier work
# [4] = after ingestion, cited from earlier work
# [5] = tested on: gut microbiota starter cultures (human feces from 6 volunteers); assay: ex vivo simulation of colon fermentation with human fecal starter cultures; butyrate generation by chromatography; assay type: cell-based; conditions: for Butyrate Generation: after 48 hours of fermentation
# Procedure: In the first type of experiment, an ex-vivo model system is used. In this model system, an ex vivo simulation of the fermentation that occurs in the colon was used. Human feces from 6 volunteers were used as a gut microbiota starter cultures. The test materials were added to this system and butyrate generation was determined after 48 hours of fermentation, compared to controls for each set. Butyrate generation was measured using chromatography.
# In this series of experiments the human equivalent dose (HED) was determined to be 1 gram/day of ingested prebiotic in-vivo corresponds to approximately 1 g/L in-vitro dose. Therefore a 10 mg/ml in-vitro dose is equivalent to 10 mg/day HED.
# [6] = tested on: mucosal damage in experimental colitis; conditions: DSS colitis, 5 g/kg diet, cited from earlier work
# [7] = Example 4, probiotic alone, test dose 5*10^7 CFU/mL, blank 2.78
molecule,measurement,setting,value
"C[n+]1ccc(-c2cc[n+](C)cc2)cc1 [Paraquat, reference compound]",% Survival of Worms at 12 hours,"Caenorhabditis elegans; Paraquat 250 nM alone (positive control), negative control 98.69",67.63%
"CCCC(=O)OCC(COC(=O)CCC)OC(=O)CCC [Tributyrin, propane-1,2,3-triyl tributyrate]",solubility,[1],331 mM
same,maximum concentration soluble in DMSO,[2],≤ 100 mg/mL
same,liver injury,[3],mitigated liver injury
same,tight-junction (TJ) protein staining in proximal colon and ileum,[3],maintained immunoreactive staining intensity of TJ proteins
same,oxidative stress,"Caenorhabditis elegans; Example 3, tributyrin HED 10 and 100 mg/day, in words",significant reduction in oxidative stress
same,% Survival of Worms at 12 hours,"Caenorhabditis elegans; test dose 40 ug/mL (HED 10 mg per day), no Paraquat",97.24%
same,% Survival of Worms at 12 hours,"Caenorhabditis elegans; test dose 40 ug/mL + Paraquat 250 nM (HED 10 mg per day), Paraquat alone 67.63",68.86%
same,% Survival of Worms at 12 hours,"Caenorhabditis elegans; test dose 400 ug/mL (HED 100 mg per day), no Paraquat",99.23%
same,% Survival of Worms at 12 hours,"Caenorhabditis elegans; test dose 400 ug/mL + Paraquat 250 nM (HED 100 mg per day), Paraquat alone 67.63",73.63%
same,peak time of butyrate in plasma,[4]; in words,on the order of hours
same,Butyrate Generation,"[5]; Example 1, test dose 50 mg/L (HED 50 mg per day), blank 2.86",3.22 mM
same,Butyrate Generation,"[5]; Example 1, test dose 100 mg/L (HED 100 mg per day), blank 2.86",3.73 mM
same,butyrate generation compared with inulin at HED 4 g/day,"[5]; Example 1, tributyrin HED 50 to 100 mg/day, in words",about the same amount of butyrate
same,butyrate generation compared with XOS at HED 1 g/day,"[5]; Example 2, tributyrin 100 mg/day HED, in words",equivalent butyrate generation
same,Butyrate Generation,"[5]; Examples 2 and 4, test dose 100 mg/L (HED 100 mg per day), blank 2.78",3.51 mM
same,mucosal architecture,[6]; versus non-supplemented mice,improved mucosal architecture
same,intestinal permeability,[6],reduced intestinal permeability
same,oxidative stress (hydroperoxide),[6],lower level of hydroperoxide
"CCCC(=O)[O-].[Na+] [sodium butyrate, Sodium butyrate, reference compound]",peak time of butyrate in plasma,[4],15 to 45 min
Inulin [reference compound],Butyrate Generation,"[5]; Example 1, test dose 4 g/L (HED 4 g per day), blank 2.86",3.62 mM
Lacticaseibacillus rhamnosus GG [LGG],Butyrate Generation,[5]; [7],3.15 mM
Limosilactobacillus reuteri,Butyrate Generation,[5]; [7],2.72 mM
"partially hydrolyzed guar gum [PHGG, reference compound]",% Survival of Worms at 12 hours,"Caenorhabditis elegans; test dose 20 mg/mL (HED 5 g per day), no Paraquat",96.24%
same,% Survival of Worms at 12 hours,"Caenorhabditis elegans; test dose 20 mg/mL + Paraquat 250 nM (HED 5 g per day), Paraquat alone 67.63",49.39%
same,% Survival of Worms at 12 hours,"Caenorhabditis elegans; test dose 40 mg/mL (HED 10 g per day), no Paraquat",96.27%
same,% Survival of Worms at 12 hours,"Caenorhabditis elegans; test dose 40 mg/mL + Paraquat 250 nM (HED 10 g per day), Paraquat alone 67.63",62.99%
"xylooligosaccharide [XOS, reference compound]",Butyrate Generation,"[5]; Examples 2 and 4, test dose 1 g/L (HED 1 g per day), blank 2.78",3.30 mM
